Experimental data as given in ChEMBL document CHEMBL5303573, “Mapping human microbiome drug metabolism by gut bacteria and their genes” (Nature, 2019).

Key:
[1] = The drug is tested on Bacteroides coprophilus strain: DSM18228 for biotransformation. The drug concentrations were measured before and after a 12-h incubation by liquid-chromatography-coupled mass spectrometry (LC–MS); details: 2 µM
[2] = akkermansia muciniphila, 12 h, 2 µM
Description: The drug is tested on Akkermansia muciniphila strain: ATCC BAA-835 for biotransformation. The drug concentrations were measured before and after a 12-h incubation by liquid-chromatography-coupled mass spectrometry (LC–MS)

[3] = bacteroides fragilis, 12 h, 2 µM
Description: The drug is tested on Bacteroides fragilis strain: DS-208 for biotransformation. The drug concentrations were measured before and after a 12-h incubation by liquid-chromatography-coupled mass spectrometry (LC–MS)

[4] = parabacteroides johnsonii, 12 h, 2 µM
Description: The drug is tested on Parabacteroides johnsonii strain: DSM18315 for biotransformation. The drug concentrations were measured before and after a 12-h incubation by liquid-chromatography-coupled mass spectrometry (LC–MS)

[5] = The drug is tested on Bacteroides uniformis strain: ATCC8492 for biotransformation. The drug concentrations were measured before and after a 12-h incubation by liquid-chromatography-coupled mass spectrometry (LC–MS); details: 2 µM
[6] = The drug is tested on Ruminococcus torques strain: ATCC27756 for biotransformation. The drug concentrations were measured before and after a 12-h incubation by liquid-chromatography-coupled mass spectrometry (LC–MS); format: ADME; design: dose 2 uM, timepoint 0 vs 12 hours; details: 2 µM
[7] = The drug is tested on Bacteroides sp. WH2 strain: WH2 for biotransformation. The drug concentrations were measured before and after a 12-h incubation by liquid-chromatography-coupled mass spectrometry (LC–MS); details: bacteroides sp. wh2, 12 h, 2 µM
[8] = The drug is tested on Providencia rettgeri strain: DSM1131 for biotransformation. The drug concentrations were measured before and after a 12-h incubation by liquid-chromatography-coupled mass spectrometry (LC–MS); format: ADME; design: dose 2 uM, timepoint 0 vs 12 hours; details: 2 µM
[9] = The drug is tested on Bacteroides vulgatus strain: ATCC8482 for biotransformation. The drug concentrations were measured before and after a 12-h incubation by liquid-chromatography-coupled mass spectrometry (LC–MS); details: phocaeicola vulgatus, 2 µM
[10] = The drug is tested on Providencia stuartii strain: ATCC25827 for biotransformation. The drug concentrations were measured before and after a 12-h incubation by liquid-chromatography-coupled mass spectrometry (LC–MS); details: 2 µM
[11] = The drug is tested on Bacteroides xylanisolvens strain: DSM18836 for biotransformation. The drug concentrations were measured before and after a 12-h incubation by liquid-chromatography-coupled mass spectrometry (LC–MS); details: 2 µM
[12] = The drug is tested on Bacteroides caccae strain: ATCC43185 for biotransformation. The drug concentrations were measured before and after a 12-h incubation by liquid-chromatography-coupled mass spectrometry (LC–MS); details: 2 µM
[13] = bacteroides intestinalis, 12 h, 2 µM
Description: The drug is tested on Bacteroides intestinalis strain: DSM17393 for biotransformation. The drug concentrations were measured before and after a 12-h incubation by liquid-chromatography-coupled mass spectrometry (LC–MS)

[14] = The drug is tested on Anaerococcus hydrogenalis strain: DSM7454 for biotransformation. The drug concentrations were measured before and after a 12-h incubation by liquid-chromatography-coupled mass spectrometry (LC–MS); details: 2 µM
[15] = The drug is tested on Bifidobacterium ruminantium strain: fecal isolate for biotransformation. The drug concentrations were measured before and after a 12-h incubation by liquid-chromatography-coupled mass spectrometry (LC–MS); details: 2 µM
[16] = The drug is tested on Dorea formicigenerans strain: ATCC27755 for biotransformation. The drug concentrations were measured before and after a 12-h incubation by liquid-chromatography-coupled mass spectrometry (LC–MS); details: 2 µM
[17] = The drug is tested on Bacteroides finegoldii strain: DSM17565 for biotransformation. The drug concentrations were measured before and after a 12-h incubation by liquid-chromatography-coupled mass spectrometry (LC–MS); details: 2 µM
[18] = The drug is tested on Odoribacter splanchnicus strain: fecal isolate for biotransformation. The drug concentrations were measured before and after a 12-h incubation by liquid-chromatography-coupled mass spectrometry (LC–MS); details: 2 µM
[19] = The drug is tested on Bacteroides fragilis strain: HMW615 for biotransformation. The drug concentrations were measured before and after a 12-h incubation by liquid-chromatography-coupled mass spectrometry (LC–MS); details: 2 µM
[20] = The drug is tested on Collinsella intestinalis strain: DSM13280 for biotransformation. The drug concentrations were measured before and after a 12-h incubation by liquid-chromatography-coupled mass spectrometry (LC–MS); details: 2 µM

| Compound | Bacterial Biotransformation [1] | Bacterial Biotransformation [2] | Bacterial Biotransformation [3] | Bacterial Biotransformation [4] | Bacterial Biotransformation [5] | Bacterial Biotransformation [6] | Bacterial Biotransformation [7] | Bacterial Biotransformation [8] | Bacterial Biotransformation [9] | Bacterial Biotransformation [10] | Bacterial Biotransformation [11] | Bacterial Biotransformation [12] | Bacterial Biotransformation [13] | Bacterial Biotransformation [14] | Bacterial Biotransformation [15] | Bacterial Biotransformation [16] | Bacterial Biotransformation [17] | Bacterial Biotransformation [18] | Bacterial Biotransformation [19] | Bacterial Biotransformation [20] |
| --- | --- | --- | --- | --- | --- | --- | --- | --- | --- | --- | --- | --- | --- | --- | --- | --- | --- | --- | --- | --- |
| COC1=C(OC)C(=O)C(CCCCCCCCCCO)=C(C)C1=O [IDEBENONE] | Compound NOT metabolized | Compound NOT metabolized | Compound metabolized | Compound NOT metabolized | Compound metabolized | Compound NOT metabolized | Compound NOT metabolized | Compound NOT metabolized | Compound metabolized | Compound NOT metabolized | Compound metabolized | Compound metabolized | Compound NOT metabolized | Compound NOT metabolized | Compound NOT metabolized | Compound NOT metabolized | Compound NOT metabolized | Compound metabolized |  |  |
| CN(C)CCOC(C)(c1ccccc1)c1ccccn1.O=C(O)CCC(=O)O (centres undefined) [DOXYLAMINE SUCCINATE] | Compound NOT metabolized | Compound NOT metabolized | Compound NOT metabolized |  | Compound NOT metabolized | Compound NOT metabolized | Compound NOT metabolized |  | Compound NOT metabolized | Compound NOT metabolized | Compound NOT metabolized | Compound NOT metabolized | Compound NOT metabolized | Compound NOT metabolized |  | Compound NOT metabolized | Compound NOT metabolized | Compound NOT metabolized | Compound NOT metabolized | Compound NOT metabolized |
| COC(=O)Nc1nc2ccc(C(=O)c3ccccc3)cc2[nH]1 [MEBENDAZOLE] | Compound NOT metabolized | Compound NOT metabolized | Compound metabolized | Compound NOT metabolized | Compound metabolized | Compound NOT metabolized | Compound NOT metabolized | Compound NOT metabolized | Compound metabolized |  | Compound metabolized | Compound NOT metabolized | Compound NOT metabolized | Compound NOT metabolized | Compound metabolized | Compound NOT metabolized |  | Compound metabolized |  | Compound NOT metabolized |
| C=CCN1CC[C@]23c4c5ccc(O)c4O[C@H]2C(=O)CC[C@@]3(O)[C@H]1C5 [NALOXONE] | Compound metabolized | Compound metabolized | Compound metabolized | Compound metabolized | Compound metabolized | Compound metabolized | Compound NOT metabolized | Compound NOT metabolized | Compound metabolized | Compound NOT metabolized | Compound metabolized |  |  | Compound NOT metabolized | Compound NOT metabolized | Compound NOT metabolized | Compound NOT metabolized | Compound NOT metabolized |  | Compound NOT metabolized |
